Measured values reported in PubChem BioAssay AID1845199 (Molecular Pharmacology Branch, DTP, NCI, 2023).

System: 556581-035-R-J1 tumor spheroid viability, % test/control
Experiment: Anticancer human tumor 556581-035-R-J1 patient-derived ovarian carcinoma cell line growth inhibition
Conditions: spheroids with HUVEC and MSC; for IC50: curve of first compound; for viability, T/C: stronger effect = lower value
Excerpt: Multicellular complex tumor spheroid response to DNA repair inhibitors in combination with DNA-damaging drugs
This study explores the anticancer activities of DNA-damaging drugs and inhibitors of DNA damage repair, both as single agents and in combinations. Complex tumor spheroids comprised of malignant cells, endothelial cells and mesenchymal stem cells served as an in vitro model for human solid tumors. This model system incorporates physiologically relevant features and patient-derived or established malignant cell lines with clinically relevant genetic alterations from many tumor types. Twenty-six patient-derived or established malignant cell lines were evaluated representing sarcoma, melanoma, small cell lung cancer (SCLC), non-small cell lung cancer (NSCLC), as well as bladder, ovarian and pancreatic cancers. The concentration ranges selected for each drug and investigational agent were based upon clinically achievable concentrations if the clinical Cmax of the agent was known.
Compounds. The drugs and compounds olaparib (NSC753686), talazoparib (NSC767125), berzosertib (NSC777718), elimusertib (NSC800525), nedisertib (NSC802822), VX-984 (NSC792969), AZD-1390 (NSC803789), temozolomide (NSC362856), topotecan (NSC609699), trabectedin (NSC813783), staurosporine (NSC755774), and gemcitabine (NSC613327) were obtained from the National Cancer Institute (NCI) Developmental Therapeutics Program Chemical Repository. The FDA-approved anticancer drug set is available from the Developmental Therapeutics Program at https://dtp.cancer.gov/organization/dscb/obtaining/available_plates.htm. […] The stock solutions were prepared in dimethyl sulfoxide (DMSO, Sigma-Aldrich, St. Louis, MO, cat. D2650) at 400-fold the tested concentration and stored at -70 degrees C. Prior to their use, the stock solutions were diluted in fresh medium and the final DMSO concentration in the assay was 0.25% (v/v). All drugs and investigational agents were tested over a range starting from a high concentration at or near the clinical Cmax and decreasing in half-log increments. If the clinical Cmax for an agent had not been determined, the highest concentration tested was 10 microM.
Cell Lines. The patient-derived cancer cell (PDC) lines: 156681-154-R-J1-PDC, 283228-195-R-J1-PDC, 287954-098-R-J1-PDC, 292921-168-R-J2-PDC, 349418-098-R-PDC, 425362-245-T-J1-PDC, 556581-035-R-J1-PDC, and BL0293-F563-PDC were received from the NCI Patient-Derived Models Repository (PDMR, https://pdmr.cancer.gov). The established cell lines HS-SY-2 (RRID:CVCL_8719), MPNST, and SYO-1 (RRID:CVCL_7146) were obtained from the Sloan Kettering Institute. The alveolar soft parts sarcoma cell line ASPS-1 (RRID:CVCL_S738) was established at the NCI and grown from internal seed stocks. The following established cell lines were purchased from the American Type Culture Collection (ATCC, Manassas, VA): G-401 (ATCC, cat. CRL-1441, RRID:CVCL_0270), SW982 (ATCC, cat. HTB-93, RRID:CVCL_1734), VA-ES-BJ (ATCC, cat. CRL-2138, RRID:CVCL_1785), NCI-H719 (ATCC, cat. CRL-5837, RRID:CVCL_1582), NCI-H196 (ATCC, cat. CRL-5823, RRID:CVCL_1509), NCI-H841 (ATCC, cat. CRL-5845, RRID:CVCL_1595), NCI-H1618 (ATCC, cat. CRL-5879, RRID:CVCL_1480), NCI-H1876 (ATCC, cat. CRL-5902, RRID:CVCL_1503), DMS 114 (ATCC, cat. CRL-2066; RRID:CVCL_1174), NCI-H211 (ATCC, cat. CRL-5824; RRID:CVCL_1529), and SW 1271 (ATCC, cat. CRL-2177, RRID:CVCL_1716). The small cell lung cancer cell line COR-L88 was purchased from Sigma-Aldrich (cat. 92031917-1VL, RRID:CVCL_1141). The non-small cell lung cancer cell lines NCI-H226 (RRID:CVCL_1544) and NCI-H322M (RRID:CVCL_1557) were established at the NCI and grown from internal seed stocks. Pooled donor human umbilical vein endothelial cells (HUVEC, Lonza, cat. CC-2519) and human mesenchymal stem cells (hMSC, Lonza, cat. PT-2501) were purchased from Lonza (Walkersville, MD).
Cell Culture. All cells were maintained in an incubator at 37 degrees C and 5% CO2 with 95% humidity. […]
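Note: spheroids exposed to compounds for 7 days before viability read.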

`COc1ccc([C@@H](O)c2cc(-c3ncnc4cc(N5CCOCC5)ccc34)c(F)cc2Cl)nn1` + COc1cc2c(cc1O)CCNC21CSC2c3c(OC(C)=O)c(C)c4c(c3C(COC1=O)N1C(O)C3Cc5cc(C)c(OC)c(O)c5C(C21)N3C)OCO4 gave an IC50 (second compound 30 pM) of 1770 nM, an IC50 (second compound 94.9 pM) of 1960 nM and an IC50 (second compound 0.0003 µM) of 2060 nM. It also gave an IC50 (second compound 0.000949 µM) of less than 31.6 nM, an IC50 (second compound 0.003 µM) of less than 31.6 nM and a viability, T/C (second compound 30 pM, first compound 0.0316 µM) of 97.4%. The viability, T/C (second compound 30 pM, first compound 0.1 µM) was 102%, the viability, T/C (second compound 30 pM, first compound 0.316 µM) was 88.2% and the viability, T/C (second compound 30 pM, first compound 1 µM) was 60.5%. It also gave a viability, T/C (second compound 30 pM, first compound 3.16 µM) of 40.1%, a viability, T/C (second compound 30 pM, first compound 10 µM) of 32.8% and a viability, T/C (second compound 94.9 pM, first compound 0.0316 µM) of 104%. It also gave a viability, T/C (second compound 94.9 pM, first compound 0.1 µM) of 102%, a viability, T/C (second compound 94.9 pM, first compound 0.316 µM) of 90.5% and a viability, T/C (second compound 94.9 pM, first compound 1 µM) of 61.6%. It also gave a viability, T/C (second compound 94.9 pM, first compound 3.16 µM) of 42.7%, a viability, T/C (second compound 94.9 pM, first compound 10 µM) of 32.3% and a viability, T/C (second compound 0.0003 µM, first compound 0.0316 µM) of 99.5%. The viability, T/C (second compound 0.0003 µM, first compound 0.1 µM) was 104%, the viability, T/C (second compound 0.0003 µM, first compound 0.316 µM) was 86.8% and the viability, T/C (second compound 0.0003 µM, first compound 1 µM) was 67.8%. For the same molecule, the viability, T/C (second compound 0.0003 µM, first compound 3.16 µM) was 40%, the viability, T/C (second compound 0.0003 µM, first compound 10 µM) was 22.4% and the viability, T/C (second compound 0.000949 µM, first compound 0.0316 µM) was 42.1%. It also gave a viability, T/C (second compound 0.000949 µM, first compound 0.1 µM) of 36.5%, a viability, T/C (second compound 0.000949 µM, first compound 0.316 µM) of 12.3% and a viability, T/C (second compound 0.000949 µM, first compound 1 µM) of 0.69%. It also gave a viability, T/C (second compound 0.000949 µM, first compound 3.16 µM) of 0.37%, a viability, T/C (second compound 0.000949 µM, first compound 10 µM) of 1.03% and a viability, T/C (second compound 0.003 µM, first compound 0.0316 µM) of 0.59%. For the same molecule, the viability, T/C (second compound 0.003 µM, first compound 0.1 µM) was 0.87%, the viability, T/C (second compound 0.003 µM, first compound 0.316 µM) was 0.65% and the viability, T/C (second compound 0.003 µM, first compound 1 µM) was 0.7%. The viability, T/C (second compound 0.003 µM, first compound 3.16 µM) was 0.82% and the viability, T/C (second compound 0.003 µM, first compound 10 µM) was 0.98%.
